The values that follow come from PubChem BioAssay (NCI).

Structures are written as SMILES. Values joined by “and” are separate entries in the source; they are usually repeats but may differ in a detail not shown here. Equal values may be shown once.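 Growth conditions: 96-well plates. Treatment: test compound, 48 hours, 5 concentrations. Analysis: linear interpolation between bracketing concentrations; unreached endpoints set to highest concentration. Abbreviation: GI50, concentration required for 50% inhibition of growth. TGI is the concentration that stops growth completely.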

Test systems include NCI-H226 lung; COLO 205 colon; HCT-116 colon; OVCAR-8 ovarian; HOP-92 NSCLC; KM12 colon; PC-3 prostate; SK-OV-3 ovarian; HOP-62 NSCLC; A549 NSCLC.
Assay in all cases: inhibition of tumour cell growth, NCI panel, 48 h

With `CSc1ccc2c(c1)C(=O)c1c-2n(CCCBr)c(=O)c2cc([N+](=O)[O-])ccc12`, the GI50 was 33.6 µM in the assay with NCI-H226 lung; 17.8 µM in the assay with COLO 205 colon; 2.22 µM with HCT-116 colon; 27.6 µM with OVCAR-8 ovarian; 0.356 µM in the assay with HOP-92 NSCLC; 46.1 µM in the assay on KM12 colon. Further, the GI50 in the assay with PC-3 prostate was 25.8 µM; in the assay on SK-OV-3 ovarian, 12.1 µM; with HOP-62 NSCLC, 1.05 µM; in the assay on A549 NSCLC, 7.61 µM. Moreover, the TGI in the assay with NCI-H226 lung is over 100 µM; with COLO 205 colon, over 100 µM; in the assay on HCT-116 colon it was over 100 µM; in the assay on OVCAR-8 ovarian, over 100 µM; in the assay on HOP-92 NSCLC, 10.3 µM; in the assay with KM12 colon it was over 100 µM. Further, the TGI with PC-3 prostate is over 100 µM; in the assay on SK-OV-3 ovarian, over 100 µM; in the assay on HOP-62 NSCLC it was 19.6 µM; in the assay on A549 NSCLC, over 100 µM.

As to `C=C1C(=O)O[C@H]2[C@H]1CC/C(COC(=O)/C=C\C(=O)NCc1ccc(Cn3c(=O)sn(CCCC)c3=O)cc1)=C\CC[C@@]1(C)O[C@@H]21`, the GI50 is 1.58 µM in the assay on NCI-H226 lung; 0.581 µM with COLO 205 colon; 0.176 µM in the assay on HCT-116 colon; 0.828 µM in the assay with OVCAR-8 ovarian; 0.655 µM in the assay with HOP-92 NSCLC; 1.67 µM in the assay on KM12 colon. Further, the GI50 in the assay with PC-3 prostate was 0.868 µM; with SK-OV-3 ovarian it was 3.33 µM; in the assay with HOP-62 NSCLC, 1.63 µM; in the assay on A549 NSCLC, 1.56 µM. In addition, the TGI worked out at 3.39 µM in the assay on NCI-H226 lung; 2.37 µM with COLO 205 colon; 0.491 µM in the assay on HCT-116 colon; 3.32 µM with OVCAR-8 ovarian; 2.04 µM in the assay with HOP-92 NSCLC; 3.8 µM in the assay with KM12 colon. Moreover, the TGI in the assay on PC-3 prostate was determined as 2.34 µM; in the assay with SK-OV-3 ovarian, 8.55 µM; in the assay with HOP-62 NSCLC, 3.46 µM; in the assay on A549 NSCLC it was 4.16 µM.

`O=S(=O)(Nc1ccc(F)cc1F)c1ccc(-c2cnc(C3CC3)o2)cc1`: the GI50 in the assay with NCI-H226 lung is 1.7 µM; in the assay on COLO 205 colon, 0.767 µM; in the assay on HCT-116 colon, 0.421 µM; in the assay with OVCAR-8 ovarian, 1.57 µM; with HOP-92 NSCLC, 0.25 µM; in the assay with KM12 colon, 0.485 µM. For the same molecule, the GI50 in the assay on PC-3 prostate is 0.897 µM; with SK-OV-3 ovarian, 2.52 µM; in the assay with HOP-62 NSCLC, 0.724 µM; in the assay with A549 NSCLC, 0.868 µM. In addition, the TGI in the assay on NCI-H226 lung is 43.3 µM; in the assay on COLO 205 colon it was 17.1 µM; with HCT-116 colon, over 64 µM; in the assay with OVCAR-8 ovarian, over 95.2 µM; with HOP-92 NSCLC, 10.6 µM; with KM12 colon, 28.5 µM. In addition, the TGI in the assay with PC-3 prostate was over 50.1 µM; in the assay with SK-OV-3 ovarian it was 61.6 µM; in the assay with HOP-62 NSCLC, 47.6 µM; with A549 NSCLC it was over 100 µM.

For the molecule `O=C(c1ccc(/C=C/c2n[nH]c3ccccc23)cc1)N1CCNCC1`, the GI50 with NCI-H226 lung was > 10 µM and 1.84 µM; with COLO 205 colon it was 3.96 µM and 0.598 µM; in the assay on HCT-116 colon it was 1.5 µM and 2.02 µM; in the assay with OVCAR-8 ovarian, > 10 µM and 14.1 µM; in the assay on HOP-92 NSCLC it was 2.71 µM and 1.89 µM; in the assay with PC-3 prostate it was 5.02 µM and 3.12 µM. The GI50 was > 10 µM and 5.15 µM in the assay with SK-OV-3 ovarian; > 10 µM and 3.63 µM with HOP-62 NSCLC; 2.95 µM and 2.57 µM with A549 NSCLC. For the same molecule, the TGI was > 10 µM and 8.66 µM with NCI-H226 lung; > 10 µM and 5.9 µM in the assay on COLO 205 colon; 2.88 µM and 20.9 µM in the assay on HCT-116 colon; > 10 µM and 34.4 µM in the assay with OVCAR-8 ovarian; > 10 µM and 7.63 µM in the assay with HOP-92 NSCLC; > 10 µM and 5.35 µM in the assay with KM12 colon. The TGI in the assay on PC-3 prostate is > 10 µM and 35.8 µM; with SK-OV-3 ovarian it was > 10 µM and 20.4 µM; in the assay on HOP-62 NSCLC, > 10 µM and 19.3 µM; in the assay on A549 NSCLC, > 10 µM and 39.4 µM.

As to `CCN(Cc1ccccc1C)c1ccc(CO)c(Cl)c1`, the GI50 is 0.0375 µM in the assay on NCI-H226 lung; 13.3 µM in the assay on COLO 205 colon; 0.445 µM in the assay on HCT-116 colon; 15.8 µM in the assay on OVCAR-8 ovarian; 1.83 µM in the assay with HOP-92 NSCLC; 11.8 µM in the assay on KM12 colon. Moreover, the GI50 in the assay on PC-3 prostate was 12.1 µM; in the assay on SK-OV-3 ovarian, 13.7 µM; in the assay with HOP-62 NSCLC, 6.39 µM; in the assay on A549 NSCLC, 6.63 µM. The TGI with NCI-H226 lung came out at 0.201 µM; with COLO 205 colon, 28.2 µM; with HCT-116 colon, 11.6 µM; in the assay with OVCAR-8 ovarian it was 48.9 µM; in the assay on HOP-92 NSCLC it was 9.14 µM; with KM12 colon, 26.6 µM. The TGI in the assay on PC-3 prostate was determined as 25.4 µM; in the assay with SK-OV-3 ovarian, 31.5 µM; with HOP-62 NSCLC, 23.7 µM; in the assay with A549 NSCLC, 27.9 µM.

Consider `CC(=O)Oc1ccccc1C(=O)Nc1ncc([N+](=O)[O-])s1`, for which the GI50 in the assay with NCI-H226 lung is 2.62 µM; in the assay on COLO 205 colon, 1.83 µM; in the assay on HCT-116 colon it was 2.26 µM; with OVCAR-8 ovarian it was 2.73 µM; with HOP-92 NSCLC, 0.227 µM; in the assay with KM12 colon, 3 µM. The GI50 in the assay on PC-3 prostate was 1.66 µM; in the assay on SK-OV-3 ovarian, 3.2 µM; with HOP-62 NSCLC, 4.45 µM; in the assay on A549 NSCLC, 2.94 µM. Further, the TGI in the assay on NCI-H226 lung is 8.7 µM and 36.7 µM; with HCT-116 colon it was 9.55 µM and > 61.2 µM; in the assay with OVCAR-8 ovarian, 25.1 µM and > 100 µM; in the assay with HOP-92 NSCLC, 0.966 µM and 8.1 µM; in the assay on PC-3 prostate, 6.42 µM and > 51.6 µM; in the assay with SK-OV-3 ovarian, over 80.3 µM. The TGI is over 75.6 µM in the assay with HOP-62 NSCLC and over 100 µM with A549 NSCLC.

As for `Cc1cc(C)c(/C=C2\C(=O)Nc3ccc(NC(=O)CCCCCCC(=O)NO)cc32)[nH]1`, the GI50 in the assay with NCI-H226 lung is over 100 µM; with COLO 205 colon it was 0.479 µM; with HCT-116 colon it was 0.3 µM; in the assay on OVCAR-8 ovarian it was 0.638 µM; in the assay on HOP-92 NSCLC, 0.47 µM; in the assay with KM12 colon it was 7.2 µM. Further, the GI50 with PC-3 prostate was 0.684 µM; in the assay on SK-OV-3 ovarian, 0.664 µM; in the assay with HOP-62 NSCLC it was 0.485 µM; in the assay with A549 NSCLC, over 100 µM. For the same molecule, the TGI in the assay with NCI-H226 lung is over 100 µM; with COLO 205 colon, 2.32 µM; in the assay with HCT-116 colon it was 4.86 µM; in the assay on OVCAR-8 ovarian, over 100 µM; with HOP-92 NSCLC, over 100 µM; with KM12 colon it was over 100 µM. Further, the TGI is over 100 µM in the assay with PC-3 prostate, 4.56 µM with SK-OV-3 ovarian, 9.83 µM with HOP-62 NSCLC and over 100 µM in the assay with A549 NSCLC.

Consider `CC(C)(S)C(N)C(=O)O` (configuration not stated), for which the GI50 in the assay on NCI-H226 lung was over 5000 µM; in the assay on COLO 205 colon, 1180 µM; with HCT-116 colon, 1860 µM; in the assay with OVCAR-8 ovarian it was 3450 µM; in the assay with HOP-92 NSCLC, 2960 µM; with KM12 colon, 1470 µM. The GI50 is 1320 µM in the assay on PC-3 prostate, 2600 µM with SK-OV-3 ovarian, over 5000 µM with HOP-62 NSCLC and 1780 µM with A549 NSCLC. In addition, the TGI was over 5000 µM in the assay with NCI-H226 lung; 2880 µM and > 100 µM in the assay with COLO 205 colon; over 5000 µM in the assay on HCT-116 colon; over 5000 µM in the assay with OVCAR-8 ovarian; over 5000 µM in the assay on HOP-92 NSCLC; 4710 µM and > 100 µM with KM12 colon. Further, the TGI in the assay with PC-3 prostate, with SK-OV-3 ovarian, with HOP-62 NSCLC and with A549 NSCLC was over 5000 µM throughout.
